Assay results reported in patent US20230364012A1, “STABLE OPHTHALMIC COMPOSITION OF LOTEPREDNOL” (MANKIND PHARMA LTD., priority 2022, published 2023).

Test: Particle size of the compositions, tested initially, after 15 days and one month (stability studies)
Type: physicochemical
Conditions: Initial
Description: The particle size of the compositions of the invention were tested initially, after 15 days and one month. The compositions of the invention were then observed and tested for particle aggregation, settling, and flocculation on long term storage. The observations at one month, three months, 6 months, 9 months are as follows: […]

For CCOC(=O)O[C@]1(C(=O)OCCl)CC[C@H]2[C@@H]3CCC4=CC(=O)C=C[C@]4(C)[C@H]3[C@@H](O)C[C@@]21C [API, Loteprednol etabonate], the Particle size D10 was 1 µm, the Particle size D50 was 3.3 µm and the Particle size D90 was 9.1 µm.
